From ChEMBL document CHEMBL5726902, “Heterocyclic kinase inhibitors” (2019)

biological target: Macrophage colony-stimulating factor 1 receptor (Homo sapiens, UniProt P07333); assay: In Vitro CSF-1R Kinase Activity: The CSF-1R construct corresponds to recombinant human catalytic domain (aa 538-910), which was purchased from Invitrogen (cat #PV4092). CSF-1R was mixed with peptide substrate (biotin-TYR1, Sequence: Biotin-(Ahx)-GAEEEIYAAFFA-COOH, 4 μM final) at varying inhibitor concentrations in reaction buffer: 50 mM MOPSO pH 6.5, 10 mM MgCl2, 2 mM MnCl2, 2.5 mM DTI, 0.01% BSA, 0.1 mM Na3VO4 and 0.1 mM ATP. After about 60 min incubation at rt, the reaction was quenched by addition of EDTA (final concentration: 100 mM) and developed by addition of detection reagents (final approximate concentrations: 30 mM HEPES pH 7.0, 0.06% BSA, 0.006% Tween-20, 0.24 M KF, 80 ng/mL PT66K (europium labeled anti-phosphotyrosine antibody cat #61T66KLB Cisbio, Bedford, Mass.) and 0.6 μg/mL SAXL (Phycolink streptavidin-allophycocyanin acceptor, cat #PJ25S, Prozyme, San Leandro, Calif.). The developed reaction was incubated in the dark for about 60 min at rt, then read via a time-resolved fluorescence detector (Rubystar, BMG) using a 337 nm laser for excitation and monitoring emission wavelength at 665 nm. Within the linear range of the assay, the observed signal at 665 nm was directly related to phosphorylated product and can be used to calculate the IC50 values.
Sequence (P07333 whole entry, the tested form may be a part): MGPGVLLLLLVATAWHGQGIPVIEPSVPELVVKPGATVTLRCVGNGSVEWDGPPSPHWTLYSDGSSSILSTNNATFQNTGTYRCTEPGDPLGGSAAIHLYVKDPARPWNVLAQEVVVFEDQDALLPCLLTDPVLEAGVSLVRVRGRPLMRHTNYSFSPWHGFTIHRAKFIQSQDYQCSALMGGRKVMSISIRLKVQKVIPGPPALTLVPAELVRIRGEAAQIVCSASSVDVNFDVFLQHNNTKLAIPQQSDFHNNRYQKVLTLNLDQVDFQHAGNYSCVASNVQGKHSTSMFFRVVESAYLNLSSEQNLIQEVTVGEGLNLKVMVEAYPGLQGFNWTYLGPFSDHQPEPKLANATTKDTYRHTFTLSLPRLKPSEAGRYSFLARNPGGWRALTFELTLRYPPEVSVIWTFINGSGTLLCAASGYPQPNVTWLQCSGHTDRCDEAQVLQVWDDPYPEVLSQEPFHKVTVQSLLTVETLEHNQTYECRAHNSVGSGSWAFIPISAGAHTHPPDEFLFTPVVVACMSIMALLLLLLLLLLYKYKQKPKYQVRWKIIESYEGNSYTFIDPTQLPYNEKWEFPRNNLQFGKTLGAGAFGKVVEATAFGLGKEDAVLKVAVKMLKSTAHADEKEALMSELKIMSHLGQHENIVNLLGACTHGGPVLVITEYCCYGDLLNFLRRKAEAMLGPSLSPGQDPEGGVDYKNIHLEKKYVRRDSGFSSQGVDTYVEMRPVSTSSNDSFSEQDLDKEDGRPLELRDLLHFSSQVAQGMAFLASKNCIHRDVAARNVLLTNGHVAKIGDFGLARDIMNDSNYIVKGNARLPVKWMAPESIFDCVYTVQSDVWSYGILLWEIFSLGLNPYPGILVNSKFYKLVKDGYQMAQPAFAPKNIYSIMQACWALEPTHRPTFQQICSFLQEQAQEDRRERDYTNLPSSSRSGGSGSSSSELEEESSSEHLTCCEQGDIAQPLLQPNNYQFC

IC50, < 100 nM:
O[C@H]1CC[C@@H](n2cc(Nc3nc(C4CCCCC4)cn4ncnc34)cn2)CC1
CC1(C)CC(n2cc(Nc3nc(C4CCCCC4)cn4ncnc34)cn2)CC(C)(C)O1
O[C@H]1CC[C@H](n2cc(Nc3nc(C4CCCCC4)cn4ncnc34)cn2)CC1
